# Measured values as given in US20240252463A1, “METHODS OF TREATING FIBROTIC PATHOLOGIES” (Mayo Foundation for Medical Education and Research, priority 2018, published 2024).
# How the values were obtained:
# αSMA+ stress fibers = experiment: TGFβ-induced αSMA+ stress fiber formation; format: cell-based, human; details: IMR-90, TGFβ 72 hours, DHX 10 μM from 48-72 hours
# Procedure: ImmunofluorescenceMicroscopy: Cells were plated into 96 well plates (Corning 3603) in their specific growth media and allowed to attach (8 hours). Media was then exchanged for the indicated conditions for each experiment. Cells were fixed in 3.7% formalin (Sigma-Aldrich), permeabilized in 0.25% Triton X-100 (Sigma-Aldrich) and then blocked with 1% BSA for 1 h. Cells or tissue sections were incubated overnight with mouse monoclonal antibody against αSMA (Sigma-Aldrich F3777), and/or a rabbit monoclonal antibody against YAP/TAZ (Cell Signaling D24E4) diluted 1:200 in PBS with 1% BSA.
# CTGF, COL1A1, ACTA2, FN1 = experiment: qPCR of profibrotic and matrix remodeling gene expression in IPF patient-derived fibroblasts; format: cell-based, human; details: 2 ng/mL TGFβ and 10 μM DHX, 24 hours
# Procedure: FIGS. 3A-3F DHX reverses fibroblast matrix deposition, contraction and stiffening. 3a. […] Genes which encode Connective tissue growth factor (CTGF), Collagen I (COL1A1), αSMA (ACTA2), and Fibronectin (FN1) are reduced by 24 hour treatment with DHX (10 μM), +/−SCH 39166 (3 μM). N=3 (****p<0.0001, ***p<0.001, *p<0.05 vs. 0.1% DMSO vehicle control) 3b. DHX reverses TGFβ-induced αSMA+ stress fiber formation. IMR-90 cells pre-stimulated with 2 ng/mL TGFβ for 48 hours and then treated with DHX (10 μM)+2 ng/mL TGFβ for an additional 24 hours prior to fixation. Cells which are positive for αSMA were quantified by a blinded investigator and noted in the bottom right corner, a minimum of 300 cells in each experiment were quantified. N=3. 3c. DHX reverses TGFβ-induced extracellular matrix accumulation. […] Cell derived matrix is measured using antibodies for Collagen I and Fibronectin. […] DHX attenuates IPF patient-derived fibroblast contractility measured by traction force microscopy. […] RMS tractions were determined in two independent experiments; box and whisker plots show min to max, quartile, and mean from one representative experiment (****p<0.0001, *p<0.05 vs. 0.1% DMSO vehicle control). […] The matrices were decellularized and passage 3 NHLFs were plated onto the matrices; after 24 hours RNA was collected and expression of profibrotic genes was analyzed. […]
structure (smiles),measurement,setting,value
"Oc1cc2c(cc1O)[C@H]1c3ccccc3CN[C@@H]1CC2 (racemic) [Dihydrexidine, dihydrexidine]",myofibroblastic transition (αSMA+ stress fibers),αSMA+ stress fibers,reversed this transition
same,"expression of matrix crosslinking, protease inhibitor and matrix degradation genes","CTGF, COL1A1, ACTA2, FN1",reversed the effects of TGFβ
